Laboratory results as given in patent US12474342B2, “Methods for treating cancer and the use of biomarkers as a predictor of clinical sensitivity to therapies” (CELGENE CORPORATION, priority 2016, dated 2025).
Like-named read-outs stand apart in the source and are kept apart here. Marks after values point to notes of the source that are not given here.

Assays:
[1] = molecular target: T1, GSPT1 (Homo sapiens, UniProt P15170+Q96SW2); assay: GSPT1 protein reduction, western analysis, OCI-AML3; type: cell-based; design: reduction in GSPT1 protein level was evaluated in human normal PBMCs; endogenous in cells; host or cells: primary PBMCs from normal donors (ID 4328, 4379) and AML patients (ID 11SH, 09P6)
Experimental: The reduction in the level of GSPT1 protein was concentration-dependent over the range of 3 to 1000 nM in eight of the nine AML cell lines and over the range of 300 to 1000 nM in one relatively insensitive AML cell line. The time course of the reduction in GSPT1 by Compound D also was studied for up to 48 hours. The progressive degradation of GSPT1 over the course of 1 to 20 hours was evident in the presence of all concentrations of Compound D studied from 3 to 300 nM in HNT-34, HL-60, and ML-2 cells, with little GSPT1 remaining by 20 hours at 100 or 300 nM Compound D in HNT-34 or HL-60 cells (FIG. 34 and FIG. 35C). Time-dependent reduction in GSPT1 was also observed in KG-1 and OCI-AML2 cells at 3 to 1000 nM Compound D, with little GSPT1 remaining in KG-1 cells at 100 to 300 nM at 24 hours or in OCI-AML2 cells at 300 and 1000 nM at 24 hours (FIG. 35D). Loss of GSPT1 occurred more slowly in Kasumi-1, AML-193, and F36-P cells.
Compound D-mediated GSPT1 reduction at 8 hours was compared to induction of caspase 3/7 activation (apoptosis) at 12, 24, and 48 hour time points in these nine AML cell lines. […] A positive association (r^2=0.50; R=0.71; p value=4.86E-002) was observed between the level of GSPT1 reduction and apoptosis induction in the AML cell panel (FIG. 36), with >90% GSPT1 reduction correlating with induction of apoptosis.

[2] = test system: OCI-AML3 cells; assay: Apoptosis (caspase 3/7 activation), OCI-AML3; type: cell-based, human; settings: OCI-AML3, 123 nM
[3] = molecular target: T1, GSPT1; assay: GSPT1 protein reduction, western analysis, normal PBMCs
Experimental: PBMC were treated with 1 nM, 10 nM, 100 nM, or 1000 nM of Compound D or Compound E for 20 hours.

[4] = test system: OCI-AML2 cells; assay: Anti-proliferation 72-hour CTG assay, OCI-AML2; type: cell-based; settings: Homo sapiens; OCI-AML2, 72-hour CTG assay; read-out: IC50 of the anti-proliferative effect
Experimental: (§1) A plethora of AML cell lines were treated with serial dilutions of Compound D. IC50 value of the anti-proliferation effect of Compound D (as determined in 72-hour CTG assays) in each cell line is summarized in Table 1.

[5] = molecular target: T1, GSPT1; assay: GSPT1 protein reduction, western analysis, AML patient PBMCs; type: cell-based; design: reduction in GSPT1 protein level was evaluated in human normal PBMCs; endogenous in cells; host or cells: primary PBMCs from normal donors (ID 4328, 4379) and AML patients (ID 11SH, 09P6); settings: PBMC sample 11SH (AML)
[6] = test system: ATF3; assay: ATF3 protein induction, western blot, HNT-34; type: cell-based, human; settings: HNT-34, 10 nM Compound D
Experimental: The time course of GSPT1 degradation was monitored by western blot analysis of HNT-34 AML cells and normal PBMCs (FIGS. 32A-32D) following incubation with Compound D (1, 10, and 100 nM).

[7] = molecular target: T1, GSPT1; assay: GSPT1 degradation in NB4 cell line; type: cell-based; design: endogenous in cells; settings: NB4 cell line
[8] = test system: HNT-34 cells; assay: Anti-proliferation 72-hour CTG assay, HNT-34; type: cell-based; settings: Homo sapiens
Experimental: as §1

[9] = test system: ATF3 and DDIT3 mRNA; assay: ATF3 and DDIT3 mRNA induction, HNT-34; type: cell-based, human
Text: The kinetics of induction of mRNA for UPR factors ATF3 and DDIT3 in HNT-34 cells also strongly differed from that in PBMCs. […] This is also consistent with the reduced cytotoxicity observed for Compound D in normal adult lymphocytes as compared with tumor cells (data not shown).

[10] = test system: KG-1 AML cell cultures; assay: Induction of apoptosis (Annexin V assay), KG-1; type: cell-based; settings: Homo sapiens, read-out: Induction of Apoptosis by Compound D (Annexin V assay) EC50
[11] = test system: NB-4 cells; assay: Anti-proliferation 72-hour CTG assay, NB-4; type: cell-based; settings: Homo sapiens; NB-4, 72-hour CTG assay; read-out: IC50 of the anti-proliferative effect
Experimental: as §1

[12] = molecular target: T1, GSPT1; assay: GSPT1 degradation, western blot, MOLM-13; type: cell-based; design: endogenous in cells; settings: 100 nM
Text: Thus, Compound D-induced GSPT1 degradation is also CRBN-dependent.

[13] = molecular target: IKZF1 (Homo sapiens, UniProt Q13422+Q96SW2); settings: NB4 cell line
IKZF1, sequence (Q13422 whole entry): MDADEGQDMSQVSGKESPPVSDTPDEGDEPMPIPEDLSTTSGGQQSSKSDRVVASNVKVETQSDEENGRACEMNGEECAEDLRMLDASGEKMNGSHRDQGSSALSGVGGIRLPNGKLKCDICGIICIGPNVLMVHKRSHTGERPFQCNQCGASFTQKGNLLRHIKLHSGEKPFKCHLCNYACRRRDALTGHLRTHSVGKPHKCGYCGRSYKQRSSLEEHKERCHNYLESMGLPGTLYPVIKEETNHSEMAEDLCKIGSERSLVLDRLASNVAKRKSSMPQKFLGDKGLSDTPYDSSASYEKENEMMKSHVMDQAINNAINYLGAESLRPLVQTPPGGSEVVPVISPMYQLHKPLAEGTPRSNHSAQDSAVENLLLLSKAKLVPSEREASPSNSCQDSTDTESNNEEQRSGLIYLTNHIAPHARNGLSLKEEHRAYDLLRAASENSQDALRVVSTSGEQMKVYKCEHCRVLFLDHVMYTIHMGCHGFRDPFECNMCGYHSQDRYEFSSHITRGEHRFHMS
IKZF1, sequence (Q96SW2 whole entry): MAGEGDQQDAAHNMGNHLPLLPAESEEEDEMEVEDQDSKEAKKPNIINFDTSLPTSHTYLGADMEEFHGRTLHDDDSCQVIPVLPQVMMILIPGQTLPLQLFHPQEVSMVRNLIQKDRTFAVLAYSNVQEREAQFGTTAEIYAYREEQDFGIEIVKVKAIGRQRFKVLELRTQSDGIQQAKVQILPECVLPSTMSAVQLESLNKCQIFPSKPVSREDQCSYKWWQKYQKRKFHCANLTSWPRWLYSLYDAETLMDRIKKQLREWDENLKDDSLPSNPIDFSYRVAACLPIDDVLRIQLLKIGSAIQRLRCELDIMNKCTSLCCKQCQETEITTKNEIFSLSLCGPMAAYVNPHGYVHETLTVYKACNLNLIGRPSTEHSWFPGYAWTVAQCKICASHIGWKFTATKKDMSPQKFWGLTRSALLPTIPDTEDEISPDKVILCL
IKZF1, sequence (Q16531 whole entry partner): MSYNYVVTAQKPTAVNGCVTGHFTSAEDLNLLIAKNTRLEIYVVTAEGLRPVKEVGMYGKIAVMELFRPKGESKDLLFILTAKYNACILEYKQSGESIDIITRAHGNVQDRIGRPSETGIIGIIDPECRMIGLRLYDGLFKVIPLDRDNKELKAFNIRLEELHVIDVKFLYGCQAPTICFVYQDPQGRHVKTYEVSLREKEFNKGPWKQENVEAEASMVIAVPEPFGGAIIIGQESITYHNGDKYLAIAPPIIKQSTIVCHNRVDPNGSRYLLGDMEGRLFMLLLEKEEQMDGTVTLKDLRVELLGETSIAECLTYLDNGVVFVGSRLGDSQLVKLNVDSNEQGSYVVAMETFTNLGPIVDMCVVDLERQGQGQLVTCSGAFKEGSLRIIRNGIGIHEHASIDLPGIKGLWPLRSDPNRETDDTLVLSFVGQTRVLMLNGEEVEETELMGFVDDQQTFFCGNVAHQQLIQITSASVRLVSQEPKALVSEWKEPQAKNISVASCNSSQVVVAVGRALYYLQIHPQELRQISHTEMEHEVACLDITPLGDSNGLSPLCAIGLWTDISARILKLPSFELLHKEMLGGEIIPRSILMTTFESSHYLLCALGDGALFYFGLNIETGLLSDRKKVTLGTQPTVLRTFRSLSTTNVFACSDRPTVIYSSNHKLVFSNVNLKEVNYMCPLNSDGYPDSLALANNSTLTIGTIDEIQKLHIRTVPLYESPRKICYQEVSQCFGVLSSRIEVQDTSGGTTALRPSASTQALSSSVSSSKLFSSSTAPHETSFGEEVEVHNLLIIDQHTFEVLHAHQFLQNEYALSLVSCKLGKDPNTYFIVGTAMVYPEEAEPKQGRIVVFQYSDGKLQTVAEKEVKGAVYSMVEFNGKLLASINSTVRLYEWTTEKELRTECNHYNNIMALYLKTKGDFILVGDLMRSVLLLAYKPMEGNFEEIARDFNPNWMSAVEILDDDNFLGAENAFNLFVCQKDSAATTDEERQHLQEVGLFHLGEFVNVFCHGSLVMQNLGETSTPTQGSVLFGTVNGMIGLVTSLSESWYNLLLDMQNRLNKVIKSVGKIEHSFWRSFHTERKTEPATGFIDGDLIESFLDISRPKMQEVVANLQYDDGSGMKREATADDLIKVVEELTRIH

T1 sequence (P15170 1-637 isoform P15170-3): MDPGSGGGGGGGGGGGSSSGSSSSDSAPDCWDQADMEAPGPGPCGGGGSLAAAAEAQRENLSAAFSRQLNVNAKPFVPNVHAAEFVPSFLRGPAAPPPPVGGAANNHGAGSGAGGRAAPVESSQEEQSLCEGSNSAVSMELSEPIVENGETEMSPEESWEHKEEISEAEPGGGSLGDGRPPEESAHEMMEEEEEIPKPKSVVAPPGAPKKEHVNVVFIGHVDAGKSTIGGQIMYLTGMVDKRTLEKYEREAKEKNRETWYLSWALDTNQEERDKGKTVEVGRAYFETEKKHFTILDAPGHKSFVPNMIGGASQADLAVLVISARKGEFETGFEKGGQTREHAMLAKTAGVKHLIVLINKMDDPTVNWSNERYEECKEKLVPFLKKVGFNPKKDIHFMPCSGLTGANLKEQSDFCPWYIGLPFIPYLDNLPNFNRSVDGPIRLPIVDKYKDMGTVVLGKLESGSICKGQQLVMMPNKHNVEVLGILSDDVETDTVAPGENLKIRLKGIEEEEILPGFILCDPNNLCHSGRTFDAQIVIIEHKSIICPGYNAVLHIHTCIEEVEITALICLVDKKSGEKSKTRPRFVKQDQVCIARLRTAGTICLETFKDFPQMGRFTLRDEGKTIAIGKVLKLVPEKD
T1 sequence (Q96SW2 whole entry): as the sequence (Q96SW2 whole entry) above
T1 sequence (Q16531 whole entry partner): as the sequence (Q16531 whole entry partner) above

## O=C1CCC(N2Cc3cc(CNC(=O)C(F)(F)c4ccc(Cl)cc4)ccc3C2=O)C(=O)N1 (centres unmarked) [Compound D, 2-(4-chlorophenyl)-N-((2-(2,6-dioxopiperidin-3-yl)-1-oxoisoindolin-5-yl)methyl)-2,2-difluoroacetamide]
[1]; OCI-AML3, 100 nM, 8 hr, visual interpolation between 3 and 300 nM
  Percent Reduction at 100 nM Compound D GSPTI (8 hr): ~30^b %
[1]; OCI-AML3, 300 nM Compound D, 8 hours
  GSPT1 reduction: 37%
[1]; OCI-AML3, 4-hour exposure
  GSPT1 protein level: barely changed
[1]; OCI-AML3, 300 and 1000 nM, 24 and 48 hours
  loss of GSPT1: slight loss
[2]; 12 hr
  Average Percent Increase in Apoptosis at 123 nM Compound D, Apoptosis (12 hr): 0%
[2]; 24 hr
  Average Percent Increase in Apoptosis at 123 nM Compound D, Apoptosis (24 hr): 1%
[2]; 48 hr
  Average Percent Increase in Apoptosis at 123 nM Compound D, Apoptosis (48 hr): 2%
[3]; PBMC sample 4328 (normal), 100 nM Compound D, 8 hours
  Reduction in GSPT1 Protein Level: 67%
[3]; PBMC sample 4328 (normal), 100 nM Compound D, 22 hours
  Reduction in GSPT1 Protein Level: 92%
[3]; PBMC sample 4328 (normal), 300 nM Compound D, 8 hours
  Reduction in GSPT1 Protein Level: 80%
[3]; PBMC sample 4328 (normal), 300 nM Compound D, 22 hours
  Reduction in GSPT1 Protein Level: 98%
[3]; PBMC sample 4379 (normal), 100 nM Compound D, 8 hours
  Reduction in GSPT1 Protein Level: 39%
[3]; PBMC sample 4379 (normal), 100 nM Compound D, 22 hours
  Reduction in GSPT1 Protein Level: 73%
[3]; PBMC sample 4379 (normal), 300 nM Compound D, 8 hours
  Reduction in GSPT1 Protein Level: 58%
[3]; PBMC sample 4379 (normal), 300 nM Compound D, 22 hours
  Reduction in GSPT1 Protein Level: 83%
[3]; healthy PBMCs, 10 nM Compound D
  time at which GSPT1 degradation was evident: 4 h
[4]
  IC50: 57 nM
[5]; 100 nM Compound D, 8 hours
  Reduction in GSPT1 Protein Level: 86%
[5]; 100 nM Compound D, 22 hours
  Reduction in GSPT1 Protein Level: 100%
[5]; 300 nM Compound D, 8 hours
  Reduction in GSPT1 Protein Level: 100%
[5]; 300 nM Compound D, 22 hours
  Reduction in GSPT1 Protein Level: 100%
[6]
  time of induction of ATF3 protein: 12 h
[7]
  effect on GSPT1 level: induced degradation
[8]; HNT-34, read-out: anti-proliferative activity IC50
  IC50: 3 nM
[8]; HNT-34, 72-hour CTG assay, read-out: IC50 of the anti-proliferative effect
  IC50: 3 nM
[9]
  time of induction of ATF3 and DDIT3 mRNA: ≤ 8 h
[10]; KG-1, Compound F 0 μM
  EC50: 20 nM
[10]; KG-1, Compound F 0.1 μM
  EC50: 30 nM
[10]; KG-1, Compound F 1.0 μM
  EC50: 100 nM
[10]; KG-1, Compound F 10 μM
  EC50: 1000 nM
[10]; KG-1, Compound F 100 μM
  EC50: 8000 nM
[11]
  IC50: 17 nM
[12]; CRBN -/- MOLM-13 cells
  degradation of GSPT1: could not induce degradation
[12]; parental MOLM-13 cells
  degradation of GSPT1: induced degradation
[13]
  effect on IKZF1 level: induced degradation
